Measurements taken from US7824914B2, “Flavonoids-rich tissues from Neomarica gracilis and methods for culturing the same” (Tatung Company, priority 2006, dated 2010).
Several values for one entry are separate records, joined by “and”; a condition that tells them apart may be missing. Equal entries are not always repeated.

Tests used:
Type in all cases: cell-based, Neomarica gracilis
[1] = system: N. gracilis rhizome tissue; test: Effect of plant growth regulators on N. gracilis rhizome tissue growth and tectorigenin content in flask culture
Method: (2) To determine the effect of plant growth regulators (PGR), sprouts from liquid cultured N. gracilis rhizome tissue were removed with a scalpel. The rhizome tissue was inoculated at an inoculum weight of 3% (g F.W./50 ml) in culture medium containing MS basic medium supplemented with PGRs as shown in Table 2. The culture medium was changed every two weeks. The cultured tissue was weighted at each medium change for a total of eight weeks.
N. gracilis rhizome tissue was frozen at −80° C. for 10 hours, dried in a refrigerated vacuum drier (VirTis Freezemobile 12XL) overnight, and grinded. 0.5 g of dried and grinded tissue was suspended in adequate amount of methanol in a 10 ml flask, […] incubated at 60° C. with ultrasonic vibration for 1 hour, and cooled. Methanol was then added to the suspension to a final volume of 10 ml. The suspension was filtered with Whatman No. 1 filter paper. The filtered solution was sealed in brown sample vials and placed in cold room for future experiments.
(§1) The tectorigenin content of the tissue extract was determined by HPLC analysis using a Cosmosil 5 C18-AR-II column (5 μm, 4.6×250 mm), a Lichrospher® 100 RP-18e Guard column (45×4.6 mm, 5 μm, Merck), a Degasser (ERC-3415α) Pump, a Waters 600E Autosampler and Injector (Schambeck SGD GmbH S5200), a Waters TM 486 UV/VIS Detector, and an Integrator (SISC Xunhua Ltd.). The analysis was performed using a methanol:H2O (0.1% Acetic acid) ratio of 55:45, a flowrate of 0.8 ml/min, and a detection wavelength of 265 nm. The tectorigenin peak of the standard appeared at about 13 min appear.
N. gracilis rhizome tissue was inoculated at an inoculum weight of 3% (g F.W./[…]) in culture medium containing MS supplemented with various amount of PGRs (Table 2). The culture medium was changed and the fresh weight of the tissues was measured every two weeks. Significant increases in fresh weight were observed during 6-8 weeks of culture (FIG. 3).

[2] = system: N. gracilis rhizome tissue; test: Effect of ancymidol on sprout formation and tectorigenin content of cultured rhizome tissue
Method: (§2) (4) To determine ancymidol's effect on sprout formation and tectorigenin content, liquid cultured N. gracilis rhizome tissue was inoculated at an inoculum weight of 3% (g F.W./100 ml) to a subculture medium containing MS, 0.5 mg/L BA, 0.1 mg/L 2,4-D and 0.84 mg/L NAA. At day 7 and 14 of the culture, sterilely filtered (0.2 um) ancymidol was added to the culture medium to a final concentration of 0.5, 1.0, or 2.0 mg/L. The growth of the tissue was monitored and the tectorigenin content analyzed.
as §1
as §2, with “Liquid” for “(4) To determine ancymidol's effect on sprout formation and tectorigenin content, liquid”

[3] = system: N. gracilis rhizome tissue; test: Effect of inoculum weight and PGRs on tissue growth in TIS culture; details: 1 mg/L kinetin, inoculum weight 1.5 g, 30 days
Method: (1) To determine the effect of the inoculation weight on tissue growth, the TIS culture chamber was divided into four areas. Liquid cultured N. gracilis rhizome tissue was inoculated at 1.5, 3, 6 and 9 g in each area. The culture medium was an MS medium supplemented with PGR as described in samples T12, T17 and T18 of Table 3. The tissues were cultured under conditions detailed in the Plantima® user's manual and immersed for two minutes every three hours. The cultured tissue was weighted and the medium replaced every ten days.
The TIS culture chamber was divided into four areas and liquid cultured N. gracilis rhizome tissue was inoculated at an inoculum weight of 1.5, 3, 6 and 9 g in each area. The culture medium was MS medium supplemented with PGR as described in samples TI2, TI7 and TI8 of Table 3. The cultured tissue was weighted every ten days. […] All other inoculum weights/PGR combinations led to slower growth (FIG. 7).

[4] = system: N. gracilis rhizome tissue; test: Effect of PGRs on growth and tectorigenin content in TIS culture; details: for Growth rate: (Final F.W. − Initial F.W.)/Initial F.W.; for F.W. / Tectorigenin: week 4
Method: (2) To determine the effect of PLRs on the grows of N. gracilis and the tectorigenin content influence, ten pieces of liquid cultured N. gracilis rhizome tissue were inoculated in culture media containing MS and PGRs described in samples MS0, TI3, TI4, TI5 and TI6 of Table 3. The culture media were replaced on week 2 and the tissues were harvested on week 4 and analyzed for tectorigenin content.
as §1
To determine the effect of PGRs on the tectorigenin content, ten pieces of liquid cultured N. gracilis rhizome tissue (1.5 g each) were inoculated in culture media containing MS and PGRs described in samples MS0, TI3, TI4, TI5 and TI6 of Table 3. The tissues were harvested on week 4 and analyzed for tectorigenin content.

[5] = system: N. gracilis rhizome tissue; test: Tectorigenin content during growth of rhizome tissue in flask culture (weekly for 8 weeks); details: 0.1 mg/L NAA, week 1, flask culture
Method: (3) To determining the growth curve of N. gracilis rhizome tissue and the tectorigenin content, sprouts from liquid cultured N. gracilis rhizome tissues were removed with a scalpel. The rhizome tissue was inoculated at an inoculum weight (g F.W./50 ml) in culture medium containing the MS basic medium supplemented with 0.1 mg/L NAA or a mixture of 1 mg/L NAA and 1.0 mg/L 2,4-D. The tissues were weighted and analyzed for tectorigenin content every week for eight consecutive weeks.
as §1
Rhizome tissue was inoculated at an inoculum weight of 3% (g F.W./50 ml) in culture medium containing MS basic medium supplemented with 0.1 mg/L NAA or a mixture of 1 mg/L NAA and 1.0 mg/l 2,4-D. The tissues were weighted and analyzed for tectorigenin content every week for eight consecutive weeks.

[6] = 2,4-D 0.1 mg/l, NAA 0, 8 weeks flask culture
[7] = 2,4-D 1.0 mg/l, NAA 0, 8 weeks flask culture
[8] = IAA 0.1 mg/L, Kinetin 0, 8 weeks flask culture
[9] = IAA 0.5 mg/L, Kinetin 0, 8 weeks flask culture
[10] = IAA 1 mg/L, Kinetin 0, 8 weeks flask culture
[11] = NAA 0.1 mg/l, 2,4-D 0, 8 weeks flask culture
[12] = NAA 0.5 mg/l, 2,4-D 0, 8 weeks flask culture
[13] = NAA 1.0 mg/l, 2,4-D 0, 8 weeks flask culture
[14] = NAA 2.0 mg/l, 2,4-D 0, 8 weeks flask culture

Which results are given for `O=C(O)COc1ccc(Cl)cc1Cl` [2,4-D, 2,4-dichlorophenoxyacetic acid]?
Dry weight [1, 6]: 0.92 ± 0.15 bc g; Tectorigenin [1, 6]: 38.9 ± 1.17 cd mg/kg D.W.; Dry weight [1, 7]: 1.17 ± 0.21 ab g; Tectorigenin [1, 7]: 36.7 ± 0.33 cd mg/kg D.W.

`COc1ccc(C(O)(c2cncnc2)C2CC2)cc1` (stereo not shown) [Ancymidol, ancymidol] was tested. Which “effect on tectorigenin content (in words)” value ([2]; 0.5 or 2.0 mg/L added on day 14) did it give?
Its value is “reduced tectorigenin content”.

And the Tectorigenin ([2]; Ancymidol 0.5 mg/L added day 7, 3 weeks of culture)?
Its Tectorigenin is 28.31 ± 0.11 b mg/kg D.W.

And the Tectorigenin ([2]; Ancymidol 0.5 mg/L added day 14, 3 weeks of culture)?
Its Tectorigenin is 18.59 ± 0.07 c mg/kg D.W.

And the Tectorigenin ([2]; Ancymidol 1.0 mg/L added day 7, 3 weeks of culture)?
The Tectorigenin was 27.74 ± 0.08 b mg/kg D.W.

And the Tectorigenin ([2]; Ancymidol 1.0 mg/L added day 14, 3 weeks of culture)?
Its Tectorigenin is 30.81 ± 0.35 a mg/kg D.W.

What about the Tectorigenin ([2]; Ancymidol 2.0 mg/L added day 7, 3 weeks of culture) of the same compound?
Its Tectorigenin is 35.65 ± 0.18 a mg/kg D.W.

And the Tectorigenin ([2]; Ancymidol 2.0 mg/L added day 14, 3 weeks of culture)?
Its Tectorigenin is 13.36 ± 0.13 d mg/kg D.W.

What about the “effect on tectorigenin content (in words)” value ([2]; added on day 7) of the same compound?
Its value is “did not affect the tectorigenin content”.

What about the “sprout formation (morphology)” value ([2]; added on day 7) of the same compound?
The value was “significant reduction of sprout formation”.

`O=C(O)Cc1c[nH]c2ccccc12` [IAA, indole-3-acetic acid] was tested. Which Dry weight [1, 8] did it give?
The Dry weight was 1.26 ± 0.22 b g.

What about the Tectorigenin [1, 8] of the same compound?
Its Tectorigenin is 11.8 ± 8.4 b mg/kg D.W.

What about the Dry weight [1, 9] of the same compound?
The Dry weight was 1.02 ± 0.11 bc g.

What about the Tectorigenin [1, 9] of the same compound?
The Tectorigenin was 37.6±4.9 mg/kg D.W. and 37.6 ± 4.9 a mg/kg D.W.

What about the Dry weight [1, 10] of the same compound?
Its Dry weight is 1.70 ± 0.08 a g.

What about the Tectorigenin [1, 10] of the same compound?
Its Tectorigenin is 29.0 ± 0.29 c mg/kg D.W.

For `c1coc(CNc2ncnc3[nH]cnc23)c1` [Kinetin, kinetin], which “change of tectorigenin content (in words)” value ([1]; flask culture, 8 weeks) is on record?
Its value is “did not result in any increase in the tectorigenin content”.

What about the fresh weight [3] of the same compound?
The fresh weight was 6.76 ± 0.33 g.

And the “fresh weight as fold of the inoculum weight” value [3]?
The value was 4.5 fold.

What about the Growth rate ([4]; Kinetin 1.0 mg/l) of the same compound?
Its Growth rate is 2.07 ± 0.15.

What about the F.W. ([4]; Kinetin 1.0 mg/l) of the same compound?
Its F.W. is 46.12 ± 2.18 g.

And the Tectorigenin ([4]; Kinetin 1.0 mg/l)?
The Tectorigenin was 10 ± 0.15 mg/kg D.W.

Which results are given for `O=C(O)Cc1cccc2ccccc12` [NAA, α-naphthaleneacetic acid]?
Dry weight [1, 11]: 1.39 ± 0.32 a g; Tectorigenin [1, 11]: 55.5±0.67 mg/kg D.W. and 55.5 ± 0.67 ab mg/kg D.W.; Dry weight [1, 12]: 1.03 ± 0.31 bc g; Tectorigenin [1, 12]: 59.9±0.23 mg/kg D.W. and 58.9±0.23 mg/kg D.W. and 58.9 ± 0.23 ab mg/kg D.W.; Dry weight [1, 13]: 1.05 ± 0.20 bc g; Tectorigenin [1, 13]: 49.0 ± 0.81 bc mg/kg D.W.; Dry weight [1, 14]: 0.75 ± 0.02 cd g; Tectorigenin [1, 14]: 9.4 ± 0.22 e mg/kg D.W.; tectorigenin content (highest, during week 1) [5]: 56±2.82 mg/kg D.W.; Growth rate ([4]; NAA 0.1 mg/l): 1.71 ± 0.14; F.W. ([4]; NAA 0.1 mg/l): 40.65 ± 2.09 g; Tectorigenin ([4]; NAA 0.1 mg/l): 38 ± 0.57 mg/kg D.W.; Growth rate ([4]; NAA 0.5 mg/l): 1.10 ± 0.21; F.W. ([4]; NAA 0.5 mg/l): 31.47 ± 3.12 g; Tectorigenin ([4]; NAA 0.5 mg/l): 33 ± 0.38 mg/kg D.W.
